The results in this text go back to paper PMC5577244, “CD2068 potentially mediates multidrug efflux in Clostridium difficile” (Scientific Reports, 2017).

The target in one test is T1, CD2068 (Clostridioides difficile, UniProt Q188D7).
T1 construct: gene CD630_20680; full coding region in pET28a (NcoI/EcoRI), C-terminal His6 tag kept; expressed in E. coli BL21(DE3) pLysS; inside-out membrane vesicles; ~60 kDa
T1 sequence (Q188D7 entry or part of it): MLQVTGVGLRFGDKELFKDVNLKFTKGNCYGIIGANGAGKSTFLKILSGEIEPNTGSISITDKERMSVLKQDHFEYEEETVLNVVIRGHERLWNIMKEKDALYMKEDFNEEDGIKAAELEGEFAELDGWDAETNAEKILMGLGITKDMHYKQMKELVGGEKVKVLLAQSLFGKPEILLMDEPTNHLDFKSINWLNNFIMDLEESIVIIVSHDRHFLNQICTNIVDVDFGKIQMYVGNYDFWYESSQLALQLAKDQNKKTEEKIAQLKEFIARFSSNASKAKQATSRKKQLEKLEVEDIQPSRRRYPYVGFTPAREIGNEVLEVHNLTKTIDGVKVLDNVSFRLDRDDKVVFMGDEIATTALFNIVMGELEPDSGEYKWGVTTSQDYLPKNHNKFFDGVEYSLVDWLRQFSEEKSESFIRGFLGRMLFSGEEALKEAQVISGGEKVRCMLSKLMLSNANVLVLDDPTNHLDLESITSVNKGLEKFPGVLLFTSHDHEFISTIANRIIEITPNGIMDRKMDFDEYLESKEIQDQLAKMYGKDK
The test can be described thus: vanadate-sensitive ATPase stimulation, inside-out membrane vesicles, phosphate release. It counts as biochemical.
Details: not given
The source says:
vanadate-sensitive ATPase stimulation, inside-out membrane vesicles, phosphate release on CD2068
Compound `Cc1onc(-c2ccccc2Cl)c1C(=O)N[C@@H]1C(=O)N2[C@@H]1SC(C)(C)[C@@H]2C(=O)O` [Cloxacillin] registered an EC50 of 3 µM.

`CC1(C)S[C@@H]2[C@H](NC(=O)[C@H](N)c3ccccc3)C(=O)N2[C@H]1C(=O)O` [Ampicillin] registered an EC50 of 4.4 µM.

On to `CO[C@@]1(NC(=O)Cc2cccs2)C(=O)N2C(C(=O)O)=C(COC(N)=O)CS[C@@H]21` [Cefoxitin], for which the EC50 amounted to 7.6 ± 1 µM.

With `CN[C@H](CC(C)C)C(=O)N[C@H]1C(=O)N[C@@H](CC(N)=O)C(=O)N[C@H]2C(=O)N[C@H]3C(=O)N[C@H](C(=O)N[C@H](C(=O)O)c4cc(O)cc(O)c4-c4cc3ccc4O)[C@H](O)c3ccc(c(Cl)c3)Oc3cc2cc(c3O[C@@H]2O[C@H](CO)[C@@H](O)[C@H](O)[C@H]2O[C@H]2C[C@](C)(N)[C@H](O)[C@H](C)O2)Oc2ccc(cc2Cl)[C@H]1O` [Vancomycin], the EC50 amounted to 3.4 ± 1 µM.

`CC[C@H]1OC(=O)[C@H](C)[C@@H](O[C@H]2C[C@@](C)(OC)[C@@H](O)[C@H](C)O2)[C@H](C)[C@@H](O[C@@H]2O[C@H](C)C[C@H](N(C)C)[C@H]2O)[C@](C)(O)C[C@@H](C)/C(=N\OCOCCOC)[C@H](C)[C@@H](O)[C@]1(C)O` [Roxithromycin] came in with an EC50 of 2.9 µM.

The test is the same for the next values; noted with them: read-out: ATPase activity / SC50.
`C[C@H]1COc2c(N3CCN(C)CC3)c(F)cc3c(=O)c(C(=O)O)cn1c23` [Levofloxacin]: the EC50 came to 4.5 ± 1 µM.
